Measured values published in PubChem BioAssay AID192 (DTP/NCI, 2004).
“And” between values parts separate entries of the source, which are not always exact repeats. Identical values can stand only once. Toxic doses and inconclusive results are not listed.

Test system: BDF1 mice, B16 melanoma ip, median survival T/C
Assay: NCI In Vivo Anticancer Drug Screen. Data for tumor model B16 Melanoma (intraperitoneal) in B6D2F1 (BDF1) mice
Conditions: endpoint: median survival time, higher = longer survival
In short: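 Antitumor activity is assessed in mice bearing a transplanted tumor, with survival or tumor size compared against vehicle-dosed controls and expressed as T/C.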

[1] = dose: 100.0 mg/kg/injection, schedule: Q01DX009 (ip), vehicle: saline
[2] = dose: 12.5 mg/kg/injection, schedule: Q01DX009 (ip), vehicle: saline with Tween-80
[3] = dose: 25.0 mg/kg/injection, schedule: Q01DX009 (ip), vehicle: saline with Tween-80
[4] = dose: 50.0 mg/kg/injection, schedule: Q01DX009 (ip), vehicle: saline with Tween-80
[5] = dose: 100.0 mg/kg/injection, schedule: Q01DX009 (ip), vehicle: saline with Tween-80
[6] = dose: 6.25 mg/kg/injection, schedule: Q01DX009 (ip), vehicle: Klucel (hydroxypropylcellulose) (HPC)
[7] = dose: 50.0 mg/kg/injection, schedule: Q01DX009 (ip), vehicle: Klucel (hydroxypropylcellulose) (HPC)
[8] = dose: 100.0 mg/kg/injection, schedule: Q01DX009 (ip), vehicle: Klucel (hydroxypropylcellulose) (HPC)
[9] = dose: 200.0 mg/kg/injection, schedule: Q01DX009 (ip), vehicle: Klucel (hydroxypropylcellulose) (HPC)
[10] = dose: 200.0 mg/kg/injection, schedule: Q01DX009 (ip), vehicle: saline with Tween-80
[11] = dose: 3.12 mg/kg/injection, schedule: Q01DX009 (ip), vehicle: Klucel (hydroxypropylcellulose) (HPC)
[12] = dose: 8.0 mg/kg/injection, schedule: Q01DX009 (ip), vehicle: saline with Tween-80
[13] = dose: 400.0 mg/kg/injection, schedule: Q01DX009 (ip), vehicle: saline with Tween-80
[14] = dose: 0.5 mg/kg/injection, schedule: Q01DX009 (ip), vehicle: saline with Tween-80
[15] = dose: 1.0 mg/kg/injection, schedule: Q01DX009 (ip), vehicle: saline with Tween-80
[16] = dose: 2.0 mg/kg/injection, schedule: Q01DX009 (ip), vehicle: saline with Tween-80
[17] = dose: 4.0 mg/kg/injection, schedule: Q01DX009 (ip), vehicle: saline with Tween-80
[18] = dose: 16.0 mg/kg/injection, schedule: Q01DX009 (ip), vehicle: saline with Tween-80
[19] = dose: 100.0 mg/kg/injection, schedule: Q04DX003 (ip), vehicle: Klucel (hydroxypropylcellulose) (HPC)
[20] = dose: 200.0 mg/kg/injection, schedule: Q04DX003 (ip), vehicle: Klucel (hydroxypropylcellulose) (HPC)
[21] = dose: 400.0 mg/kg/injection, schedule: Q04DX003 (ip), vehicle: Klucel (hydroxypropylcellulose) (HPC)

For NC(=O)CC(N)C(=O)O (configuration not stated), the T/C (dose: 50.0 mg/kg/injection, schedule: Q01DX009 (ip), vehicle: other) was 99 % of control, the T/C (dose: 100.0 mg/kg/injection, schedule: Q01DX009 (ip), vehicle: other) was 96 % of control and the T/C [1] was 92 % of control. For the same molecule, the T/C (dose: 200.0 mg/kg/injection, schedule: Q01DX009 (ip), vehicle: other) was 105 % of control, the T/C (dose: 200.0 mg/kg/injection, schedule: Q01DX009 (ip), vehicle: saline) was 87 % of control and the T/C (dose: 400.0 mg/kg/injection, schedule: Q01DX009 (ip), vehicle: other) was 96 % of control. The T/C (dose: 400.0 mg/kg/injection, schedule: Q01DX009 (ip), vehicle: saline) was 87 % of control, the T/C (dose: 800.0 mg/kg/injection, schedule: Q01DX009 (ip), vehicle: other) was 104 % of control and the T/C (dose: 1600.0 mg/kg/injection, schedule: Q01DX009 (ip), vehicle: other) was 103 % of control.

With Oc1cc2ccccc2c(-c2c(O)c(O)cc3ccccc23)c1O the T/C [2] was 114 % of control, the T/C [3] was 117 % of control and the T/C [4] was 117 % of control. The T/C [5] was 110 % of control.

O=[N+]([O-])c1cccc(C(O)C=C(C(F)(F)F)C(F)(F)F)c1 (configuration not stated) was tested, and the T/C [3] was 93 % of control and the T/C [5] was 86 % of control.

With CNC(=O)Nc1nc2ccc([N+](=O)[O-])cc2[nH]1 the T/C (dose: 50.0 mg/kg/injection, schedule: Q01DX009 (ip), vehicle: suspension in saline) was 101 % of control, the T/C (dose: 100.0 mg/kg/injection, schedule: Q01DX009 (ip), vehicle: suspension in saline) was 91 % of control and the T/C (dose: 200.0 mg/kg/injection, schedule: Q01DX009 (ip), vehicle: suspension in saline) was 90 % of control. For the same molecule, the T/C (dose: 400.0 mg/kg/injection, schedule: Q01DX009 (ip), vehicle: suspension in saline) was 91 % of control.

With O=C(Oc1ccc(OC(=O)c2ccccc2)c2c1C(=O)C(CBr)=C(CBr)C2=O)c1ccccc1 the T/C [6] was 97 % of control, the T/C (dose: 12.5 mg/kg/injection, schedule: Q01DX009 (ip), vehicle: Klucel (hydroxypropylcellulose) (HPC)) was 100 % of control and the T/C (dose: 25.0 mg/kg/injection, schedule: Q01DX009 (ip), vehicle: Klucel (hydroxypropylcellulose) (HPC)) was 97 % of control. For the same molecule, the T/C [7] was 101 % of control.

CN(C)c1ccc(C(N)=O)cn1 was tested, and the T/C (dose: 1.5 mg/kg/injection, schedule: Q01DX009 (ip), vehicle: Klucel (hydroxypropylcellulose) (HPC)) was 124 % of control.

In the case of COc1ccc(C=Nc2ccc(Cl)cc2)cc1, the T/C [7] is reported as 104 % of control, the T/C [8] is reported as 103 % of control and the T/C [9] is reported as 106 % of control.

In the case of Cc1ccc(Cl)cc1NS(=O)(=O)c1cccc([N+](=O)[O-])c1, the T/C [4] is reported as 111 % of control, the T/C [5] is reported as 107 % of control and the T/C [10] is reported as 100 % of control.

With COc1ccc2c(c1OC)C13CCCCC1C(C2)[N+](C)(C)CC3 (configuration not stated) the T/C (dose: 0.02 mg/kg/injection, schedule: Q01DX009 (ip), vehicle: Klucel (hydroxypropylcellulose) (HPC)) was 91 % of control, the T/C (dose: 0.04 mg/kg/injection, schedule: Q01DX009 (ip), vehicle: Klucel (hydroxypropylcellulose) (HPC)) was 89 % of control and the T/C (dose: 0.78 mg/kg/injection, schedule: Q01DX009 (ip), vehicle: Klucel (hydroxypropylcellulose) (HPC)) was 87 % of control. For the same molecule, the T/C [11] was 86 % of control.

For O=C(Nc1ccccc1C(F)(F)F)c1ccc(C(=O)Nc2ccccc2C(F)(F)F)cc1, the T/C [12] was 88 % of control, the T/C (dose: 12.0 mg/kg/injection, schedule: Q01DX009 (ip), vehicle: saline with Tween-80) was 90 % of control and the T/C [2] was 212 % of control. The T/C (dose: 18.0 mg/kg/injection, schedule: Q01DX009 (ip), vehicle: saline with Tween-80) was 88 % of control, the T/C [3] was 171 % of control and the T/C [4] was 156 % of control.

For CCCCCCCCCCCCCCC/C([O-])=N/[N+](C)(C)CC(C)O (configuration not stated), the T/C (dose: 25.0 mg/kg/injection, schedule: Q01DX001 (ip), vehicle: saline) was 97 % of control, the T/C (dose: 50.0 mg/kg/injection, schedule: Q01DX001 (ip), vehicle: saline) was 96 % of control and the T/C (dose: 100.0 mg/kg/injection, schedule: Q01DX001 (ip), vehicle: saline) was 95 % of control. The T/C (dose: 200.0 mg/kg/injection, schedule: Q01DX001 (ip), vehicle: saline) was 95 % of control.

Clc1ccc(Sc2ccc(Cl)cc2)cc1 was tested, and the T/C [5] was 101 % of control, the T/C [10] was 95 % of control and the T/C [13] was 93 % of control.

For NC(=S)N/N=C1/c2cc(Cl)ccc2-c2c(NC(=O)C(Cl)Cl)cc(Cl)cc21, the T/C [5] was 95 % of control, the T/C [10] was 93 % of control and the T/C [13] was 86 % of control.

In the case of CC(O)C1(O)C(O)CC(OC2c3cc4c(c(O)c3[C@@H]3C[C@@]2(C)OC32C=c3cc[nH]c3=N2)C(=O)c2cccc(O)c2C4=O)OC1C (some centres not stated), the T/C [14] is reported as 97 % of control, the T/C [15] is reported as 112 % of control and the T/C [16] is reported as 109 % of control. The T/C [17] was 117 % of control, the T/C [12] was 115 % of control and the T/C [18] was 124 % of control.

For C=C(C)[C@H]1Cc2c(ccc3c2O[C@@H]2COc4cc(OC)c(OC)cc4[C@@H]2C3=O)O1, the T/C [17] was 92 % of control and 99 % of control, the T/C [12] was 105 % of control and the T/C [18] was 98 % of control.

Cc1cc(C)cc(-n2nnc3ccccc3c2=O)c1 was tested, and the T/C [8] was 108 % of control, the T/C [19] was 95 % of control and the T/C [9] was 100 % of control. For the same molecule, the T/C [20] was 91 % of control, the T/C (dose: 400.0 mg/kg/injection, schedule: Q01DX009 (ip), vehicle: Klucel (hydroxypropylcellulose) (HPC)) was 86 % of control and the T/C [21] was 93 % of control.

CCCCCc1cc(/C=C2/N=C(c3ccc[nH]3)C=C2OC)[nH]c1C was tested, and the T/C (dose: 0.25 mg/kg/injection, schedule: Q01DX009 (ip), vehicle: saline with Tween-80) was 98 % of control, the T/C [14] was 100 % of control and the T/C [15] was 102 % of control. The T/C [16] was 107 % of control and the T/C [17] was 110 % of control.

For [Cl][Pt+2][Cl].[NH-]c1ccc([N+](=O)[O-])cc1[NH-], the T/C (dose: 5.0 mg/kg/injection, schedule: Q01DX009 (ip), vehicle: saline with Tween-80) was 103 % of control, the T/C (dose: 10.0 mg/kg/injection, schedule: Q01DX009 (ip), vehicle: saline with Tween-80) was 107 % of control and the T/C (dose: 20.0 mg/kg/injection, schedule: Q01DX009 (ip), vehicle: saline with Tween-80) was 107 % of control. For the same molecule, the T/C (dose: 40.0 mg/kg/injection, schedule: Q01DX009 (ip), vehicle: saline with Tween-80) was 118 % of control and the T/C (dose: 80.0 mg/kg/injection, schedule: Q01DX009 (ip), vehicle: saline with Tween-80) was 115 % of control.

For Cc1ccccc1NC(=O)Nc1ccccc1F, the T/C [19] was 93 % of control, the T/C [20] was 93 % of control and the T/C [21] was 100 % of control.

For COc1cccc2c1C(=O)c1c(O)c3c(c(O)c1C2=O)C[C@@](O)(C(C)=O)C[C@@H]3OC1CC(N2CCOCC2C#N)C(O)C(C)O1 (some centres not stated), the T/C (dose: 9.38 micrograms/kg/injection, schedule: Q01DX001 (ip), vehicle: distilled water + Tween-80) was 117 % of control, the T/C (dose: 18.75 micrograms/kg/injection, schedule: Q01DX001 (ip), vehicle: water) was 107 % of control and the T/C (dose: 75.0 micrograms/kg/injection, schedule: Q01DX001 (ip), vehicle: water) was 112 % of control.

With [CH3][Hg][O]C(C)=O the T/C [11] was 94 % of control and the T/C [6] was 86 % of control.

In the case of CCC(C)OC(N)=O (configuration not stated), the T/C [1] is reported as 123 % of control.

In the case of C/C=C1\C[C@@H]2C(OC)Nc3cc(O)c(OC)cc3C(=O)N2C1 (some centres not stated), the T/C (dose: 0.03 mg/kg/injection, schedule: Q01DX009 (ip), vehicle: saline) is reported as 100 % of control, the T/C (dose: 0.06 mg/kg/injection, schedule: Q01DX009 (ip), vehicle: saline) is reported as 112 % of control and the T/C (dose: 0.12 mg/kg/injection, schedule: Q01DX009 (ip), vehicle: saline) is reported as 115 % of control. The T/C (dose: 0.12 mg/kg/injection, schedule: Q01DX009 (ip), vehicle: suspension in saline) was 105 % of control, the T/C (dose: 0.25 mg/kg/injection, schedule: Q01DX009 (ip), vehicle: saline) was 112 % of control and the T/C (dose: 0.25 mg/kg/injection, schedule: Q01DX009 (ip), vehicle: suspension in saline) was 96 % of control. For the same molecule, the T/C (dose: 0.5 mg/kg/injection, schedule: Q01DX009 (ip), vehicle: saline) was 115 % of control and the T/C (dose: 0.5 mg/kg/injection, schedule: Q01DX009 (ip), vehicle: suspension in saline) was 96 % of control.
